Laboratory results as given in PubChem BioAssay AID1259411 (Chemical Carcinogenesis Research Information System (CCRIS), 2018).
Calls of active or inactive are those of the source. How the calls were made is not given here.

System: rodent carcinogenicity bioassays, tumor incidence
Test: CCRIS carcinogenicity studies
Outline: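 NCI-built, expert-reviewed records of carcinogenicity and related test outcomes (mutagenicity, tumor promotion/inhibition) compiled from published and report sources, historical span 1985-2011, not updated.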

Compound: CC(O)CN(N=O)C(=O)NCCCl (configuration not stated)
- carcinogen call (Species: RAT, Strain/Sex: F344/FEMALE, Route: INTRAVESICULAR, Dose: 0, 4.6 MG 2/WK FOR 30 WK (STUDY DURATION: LIFETIME), Tumor Site: Type of Lesion: BLADDER: TUMOR): active; positive
- carcinogen call (Species: RAT, Strain/Sex: F344/FEMALE, Route: ORAL, Dose: 0, 46 MG/L IN DRINKING WATER 5 D/WK FOR 30 WK (STUDY DURATION: LIFETIME), Tumor Site: Type of Lesion: BLADDER: TUMOR, THYROID: FOLLICULAR TUMOR): active; positive
- carcinogen call (Species: RAT, Strain/Sex: F344/MALE, Route: ORAL, Dose: 0, 46 MG/L IN DRINKING WATER 5 D/WK FOR 30 WK (STUDY DURATION: LIFETIME)): inactive; negative

Compound: N#CS
- carcinogen call (Species: RAT, Strain/Sex: F344/FEMALE, Route: ORAL, Dose: 0, 0.32% IN DRINKING WATER 5 D/WK FOR 112 WK (STUDY DURATION: 130 WK)): inactive; negative
- carcinogen call (Species: RAT, Strain/Sex: F344/MALE, Route: ORAL, Dose: 0, 0.32% IN DRINKING WATER 5 D/WK FOR 112 WK (STUDY DURATION: 130 WK)): inactive; negative

Compound: CCOc1ccc(NC(C)=O)cc1[N+](=O)[O-]
- carcinogen call (Species: MOUSE, Strain/Sex: B6C3F1/FEMALE, Route: ORAL, Dose: 0, 0.73, 1.46% OF DIET, TWA, Dose: 0, 0.73, 1.46% OF DIET, TWA): inactive; negative
- carcinogen call (Species: MOUSE, Strain/Sex: B6C3F1/MALE, Route: ORAL, Dose: 0, 0.73, 1.46% OF DIET, TWA, Dose: 0, 0.73, 1.46% OF DIET, TWA, Tumor Site: Type of Lesion: LIVER: HEPATOCELLULAR CARCINOMA OR ADENOMA): active; positive
- carcinogen call (Species: RAT, Strain/Sex: F344/FEMALE, Route: ORAL, Dose: 0, 0.18, 0.36% OF DIET, TWA, Dose: 0, 0.18, 0.36% OF DIET, TWA): inactive; negative
- carcinogen call (Species: RAT, Strain/Sex: F344/MALE, Route: ORAL, Dose: 0, 0.18, 0.36% OF DIET, TWA, Dose: 0, 0.18, 0.36% OF DIET, TWA): inactive; negative

Compound: NCC1(CC(=O)O)CCCCC1
- carcinogen call (Species: RAT, Strain/Sex: WISTAR/FEMALE, Route: ORAL, Dose: 0, 250, 1000, 2000 MG/KG IN DIET FOR 104 WK (STUDY DURATION: 104 WK), Dose: 0, 250, 1000, 2000 MG/KG IN DIET FOR 104 WK (STUDY DURATION: 104 WK)): inactive; negative
- carcinogen call (Species: RAT, Strain/Sex: WISTAR/MALE, Route: ORAL, Dose: 0, 250, 1000, 2000 MG/KG IN DIET FOR 104 WK (STUDY DURATION: 104 WK), Dose: 0, 250, 1000, 2000 MG/KG IN DIET FOR 104 WK (STUDY DURATION: 104 WK), Tumor Site: Type of Lesion: PANCREAS: ACINAR CELL ADENOMA, ACINAR CELL CARCINOMA): active; positive

Compound: CCCc1cc2ccccc2c2ccc3c(c12)C1OC1C(O)C3O (configuration not stated)
- carcinogen call (Species: MOUSE, Strain/Sex: ICR/FEMALE, Route: INTRAPERITONEAL, Dose: 0, 8 NMOL IN 5 µL DMSO ON D 1, 16 NMOL IN 10 µL ON D 8 AND 32 NMOL IN 20 µL ON D 15 OF LIFE (STUDY DURATION: 35 WK)): inactive; negative
- carcinogen call (Species: MOUSE, Strain/Sex: ICR/MALE, Route: INTRAPERITONEAL, Dose: 0, 8 NMOL IN 5 µL DMSO ON D 1, 16 NMOL IN 10 µL ON D 8 AND 32 NMOL IN 20 µL ON D 15 OF LIFE (STUDY DURATION: 35 WK)): inactive; negative

Compound: CCCN(C)N=O
- carcinogen call (Species: HAMSTER, Strain/Sex: SYRIAN/FEMALE, Route: GAVAGE, Dose: 0, 2.1 MG/KG 1/WK FOR 23-30 WK (TOTAL DOSE: 0; 0.6 MMOL) (STUDY DURATION: LIFETIME), Dose: 0, 2.1 MG/KG 1/WK FOR 23-30 WK (TOTAL DOSE: 0; 0.6 MMOL) (STUDY DURATION: LIFETIME), Tumor Site: Type of Lesion: LIVER: HEPATOCELLULAR ADENOMA, HEMANGIOSARCOMA, NASAL MUCOSA: CARCINOMA): active; positive
- carcinogen call (Species: HAMSTER, Strain/Sex: SYRIAN/MALE,FEMALE, Route: SUBCUTANEOUS, Dose: 12.5, 25, 50 MG/KG 1/WK, Dose: 12.5, 25, 50 MG/KG 1/WK, Tumor Site: Type of Lesion: NASAL CAVITY: CARCINOMA, EPIDERMOID TUMOR, MUCOEPIDERMOID TUMOR, TRACHEA: PAPILLARY POLYP, LUNG: ADENOMA, CARCINOMA, LIV, Tumor Site: Type of Lesion: NASAL CAVITY: CARCINOMA, EPIDERMOID TUMOR, MUCOEPIDERMOID TUMOR, TRACHEA: PAPILLARY POLYP, LUNG: ADENOMA, CARCINOMA, LIV): active; positive
- carcinogen call (Species: HAMSTER, Strain/Sex: SYRIAN/MALE, Route: GAVAGE, Dose: 0, 2.1 MG/KG 1/WK FOR 23-30 WK (TOTAL DOSE: 0; 0.6 MMOL) (STUDY DURATION: LIFETIME), Dose: 0, 2.1 MG/KG 1/WK FOR 23-30 WK (TOTAL DOSE: 0; 0.6 MMOL) (STUDY DURATION: LIFETIME), Tumor Site: Type of Lesion: LIVER: HEPATOCELLULAR ADENOMA, HEMANGIOSARCOMA, LUNG: ALVEOLAR/BRONCHIAL ADENOMA, NASAL MUCOSA: CARCINOMA, Tumor Site: Type of Lesion: LIVER: HEPATOCELLULAR ADENOMA, HEMANGIOSARCOMA, LUNG: ALVEOLAR/BRONCHIAL ADENOMA, NASAL MUCOSA: CARCINOMA): active; positive
- carcinogen call (Species: MOUSE, Strain/Sex: NMRI/FEMALE, Route: SUBCUTANEOUS, Dose: 0.05, 0.1, 0.2 OF LD50 (77.1 MG/KG) 1/WK FOR LIFE, Dose: 0.05, 0.1, 0.2 OF LD50 (77.1 MG/KG) 1/WK FOR LIFE, Tumor Site: Type of Lesion: NASAL CAVITY: SQUAMOUS CELL PAPILLOMA, SQUAMOUS CELL CARCINOMA, LARYNX: PAPILLOMA, CARCINOMA (IN SITU), SQUAMOUS CELL CA): active; positive

Compound: Cc1cc2c(c3ccc4ccccc4c13)[C@@H]1O[C@@H]1[C@H](O)[C@H]2O
- carcinogen call (Species: MOUSE, Strain/Sex: ICR/FEMALE, Route: INTRAPERITONEAL, Dose: 8 NMOL/5 µL DMSO ON DAY 1, 16 NMOL/10 µL ON DAY 8, AND 32 NMOL/20 µL ON DAY 15 OF AGE (STUDY DURATION: 35 WK)): inactive; negative
- carcinogen call (Species: MOUSE, Strain/Sex: ICR/MALE, Route: INTRAPERITONEAL, Dose: 8 NMOL/5 µL DMSO ON DAY 1, 16 NMOL/10 µL ON DAY 8, AND 32 NMOL/20 µL ON DAY 15 OF AGE (STUDY DURATION: 35 WK), Tumor Site: Type of Lesion: LUNG: TUMORS): active; positive

Compound: CCCCCCCCCCCCN=C(N)N
- carcinogen call (Species: Mouse, Strain/Sex: Crl:CD-1(ICR)BR/Female (70/Group), Route: Oral, Dose: 0, 200, 750, 1500 ppm in diet for 78 wk, study duration 78 wk. Test sample purity, 98%., Dose: 0, 200, 750, 1500 ppm in diet for 78 wk, study duration 78 wk. Test sample purity, 98%., Tumor Site: Type of Lesion: Liver: Hepatocellular adenoma and carcinoma combined (high dose only)): active; positive, (neither tumor type, alone, was statistically significant.)
- carcinogen call (Species: Mouse, Strain/Sex: Crl:CD-1(ICR)BR/Male (70/Group), Route: Oral, Dose: 0, 200, 750, 1500 ppm in diet for 78 wk, study duration 78 wk. Test sample purity, 98%., Dose: 0, 200, 750, 1500 ppm in diet for 78 wk, study duration 78 wk. Test sample purity, 98%.): inactive; negative
- carcinogen call (Species: Rat, Strain/Sex: Sprague-Dawley/Female (60/Group), Route: Oral, Dose: 0, 13.2, 26.5, 53.5 mg/kg/day in diet on wks 1-101, study duration 2 yrs. Test sample purity, 98.6%., Dose: 0, 13.2, 26.5, 53.5 mg/kg/day in diet on wks 1-101, study duration 2 yrs. Test sample purity, 98.6%.): inactive; negative
- carcinogen call (Species: Rat, Strain/Sex: Sprague-Dawley/Male (60/Group), Route: Oral, Dose: 0, 10.2, 20.3, 41.9 mg/kg/day in diet on wks 1-101, study duration 2 yrs. Test sample purity, 98.6%, Dose: 0, 10.2, 20.3, 41.9 mg/kg/day in diet on wks 1-101, study duration 2 yrs. Test sample purity, 98.6%): inactive; negative

Compound: O=[N+]([O-])c1ccc2c(ccc3c4ccccc4ccc23)c1
- carcinogen call (Species: MOUSE, Strain/Sex: ICR/FEMALE, Route: INTRAPERITONEAL, Dose: 0, 100 NMOL (TOTAL DOSE) ADMINISTERED IN 3 SUBDOSES OF 1/7, 2/7, AND 4/7 ON DAYS 1, 8 AND 15 OF LIFE, RESPECTIVELY (STUD): inactive; negative
- carcinogen call (Species: MOUSE, Strain/Sex: ICR/MALE, Route: INTRAPERITONEAL, Dose: 0, 100 NMOL (TOTAL DOSE) ADMINISTERED IN 3 SUBDOSES OF 1/7, 2/7, AND 4/7 ON DAYS 1, 8 AND 15 OF LIFE, RESPECTIVELY (STUD): inactive; negative

Compound: ClCOCc1ccc(COCCl)cc1
- carcinogen call (Species: MOUSE, Strain/Sex: ICR/HA SWISS/FEMALE, Route: DERMAL, Dose: 0, 0.3 MG IN 0.1 ML CYCLOHEXANE 3/WK FOR 502 D (STUDY DURATION: 570 D), Tumor Site: Type of Lesion: SKIN: PAPILLOMA, SKIN: CARCINOMA): active; positive
- carcinogen call (Species: MOUSE, Strain/Sex: ICR/HA SWISS/FEMALE, Route: SUBCUTANEOUS, Dose: 0, 0.3 MG IN 0.05 ML TRICAPRYLIN 1/WK FOR 569 D (STUDY DURATION: 570 D), Tumor Site: Type of Lesion: INJECTION SITE: SARCOMA): active; positive
